From ChEMBL document CHEMBL3875185, “Structure-anticonvulsant activity studies in the group of (E)-N-cinnamoyl aminoalkanols derivatives monosubstituted in phenyl ring with 4-Cl, 4-CH3 or 2-CH3” (Bioorg Med Chem, 2017)
The source made the active and inactive calls. The calls are words filed in the database; no cut-off is given here.

What was measured:
Mus musculus [1] = experiment: Neurotoxicity in mouse assessed as induction of motor impairment at 100 mg/kg, ip measured at 0.5 hrs post dose by rotarod method; type: toxicity, organism-based; conditions: in vivo
Mus musculus [2] = experiment: Anticonvulsant activity in maximal electroshock induced seizure mouse model assessed as suppression in hindlimb tonic extension at 100 mg/kg, ip measured at 0.5 hrs post dose; type: functional, organism-based
Mus musculus [3] = experiment: Neurotoxicity in ip dosed mouse assessed as induction of motor impairment by measuring time to peak effect by rotarod method; type: toxicity, organism-based; conditions: in vivo
Mus musculus [4] = experiment: Anticonvulsant activity in ip dosed maximal electroshock induced seizure mouse model assessed as suppression in hindlimb tonic extension by measuring time to peak effect; type: functional
[5] = Neurotoxicity in ip dosed mouse; type: toxicity, organism-based; conditions: in vivo
[6] = Protection index, ratio of TD50 for neurotoxicity in ip dosed mouse to ED50 for ip dosed maximal electroshock induced seizure mouse model; type: toxicity, organism-based; conditions: in vivo, read-out: Ratio TD50/ED50
Mus musculus [7] = experiment: Anticonvulsant activity in ip dosed maximal electroshock induced seizure mouse model assessed as suppression in hindlimb tonic extension; type: functional
Rattus norvegicus [8] = experiment: Neurotoxicity in Sprague-Dawley rat assessed as behavioral change at 30 mg/kg, po measured at 2 hrs post dose; type: toxicity, organism-based; conditions: in vivo
Rattus norvegicus [9] = experiment: Neurotoxicity in Sprague-Dawley rat assessed as behavioral change at 30 mg/kg, po measured at 0.5 hrs post dose; type: toxicity, organism-based; conditions: in vivo
Rattus norvegicus [10] = experiment: Neurotoxicity in Sprague-Dawley rat assessed as behavioral change at 30 mg/kg, po measured at 4 hrs post dose; type: toxicity, organism-based; conditions: in vivo
Mus musculus [11] = experiment: Neurotoxicity in mouse assessed as induction of motor impairment at 30 mg/kg, ip measured at 4 hrs post dose by rotarod method; type: toxicity, organism-based; conditions: in vivo
Mus musculus [12] = experiment: Neurotoxicity in mouse assessed as induction of motor impairment at 30 mg/kg, ip measured at 0.5 hrs post dose by rotarod method; type: toxicity, organism-based; conditions: in vivo
Rattus norvegicus [13] = experiment: Neurotoxicity in Sprague-Dawley rat assessed as behavioral change at 30 mg/kg, po measured at […] post dose; type: toxicity, organism-based; conditions: in vivo
Mus musculus [14] = experiment: Anticonvulsant activity in maximal electroshock induced seizure mouse model assessed as suppression in hindlimb tonic extension at 30 mg/kg, ip measured at 4 hrs post dose; type: functional, organism-based
Rattus norvegicus [15] = experiment: Neurotoxicity in Sprague-Dawley rat assessed as behavioral change at 30 mg/kg, po measured at 1 hr post dose; type: toxicity, organism-based; conditions: in vivo
Mus musculus [16] = experiment: Anticonvulsant activity in maximal electroshock induced seizure mouse model assessed as suppression in hindlimb tonic extension at 100 mg/kg, ip measured at 4 hrs post dose; type: functional, organism-based
Mus musculus [17] = experiment: Anticonvulsant activity in maximal electroshock induced seizure mouse model assessed as suppression in hindlimb tonic extension at 300 mg/kg, ip measured at 4 hrs post dose; type: functional, organism-based
Mus musculus [18] = experiment: Neurotoxicity in mouse assessed as induction of motor impairment at 300 mg/kg, ip measured at 4 hrs post dose by rotarod method; type: toxicity, organism-based; conditions: in vivo
Mus musculus [19] = experiment: Anticonvulsant activity in pentylenetetrazole induced seizure mouse model assessed as no observable episode of clonic convulsion of at least 5 secs at 300 mg/kg, ip measured at 0.5 hrs post dose; type: functional, organism-based
Mus musculus [20] = experiment: Neurotoxicity in mouse assessed as induction of motor impairment at 100 mg/kg, ip measured at 4 hrs post dose by rotarod method; type: toxicity, organism-based; conditions: in vivo
Mus musculus [21] = experiment: Neurotoxicity in mouse assessed as induction of motor impairment at 300 mg/kg, ip measured at 0.5 hrs post dose by rotarod method; type: toxicity, organism-based; conditions: in vivo
Mus musculus [22] = experiment: Anticonvulsant activity in maximal electroshock induced seizure mouse model assessed as suppression in hindlimb tonic extension at 300 mg/kg, ip measured at 0.5 hrs post dose; type: functional, organism-based
Mus musculus [23] = experiment: Anticonvulsant activity in pentylenetetrazole induced seizure mouse model assessed as no observable episode of clonic convulsion of at least 5 secs at 100 mg/kg, ip measured at 0.5 hrs post dose; type: functional, organism-based
Rattus norvegicus [24] = experiment: Neurotoxicity in Sprague-Dawley rat assessed as behavioral change at 30 mg/kg, ip measured at 0.5 hrs post dose; type: toxicity, organism-based; conditions: in vivo
Rattus norvegicus [25] = experiment: Neurotoxicity in Sprague-Dawley rat assessed as behavioral change at 30 mg/kg, ip measured at 2 hrs post dose; type: toxicity, organism-based; conditions: in vivo
Rattus norvegicus [26] = experiment: Neurotoxicity in Sprague-Dawley rat assessed as behavioral change at 30 mg/kg, ip measured at 4 hrs post dose; type: toxicity, organism-based; conditions: in vivo
Rattus norvegicus [27] = experiment: Neurotoxicity in Sprague-Dawley rat assessed as behavioral change at 30 mg/kg, ip measured at 1 hr post dose; type: toxicity, organism-based; conditions: in vivo
Rattus norvegicus [28] = experiment: Neurotoxicity in Sprague-Dawley rat assessed as behavioral change at 30 mg/kg, ip measured at […] post dose; type: toxicity, organism-based; conditions: in vivo
Mus musculus [29] = experiment: Anticonvulsant activity in 6-Hz induced seizure mouse model assessed as restoration of normal activity within 10 secs from stimulation at 100 mg/kg, ip at 32 mA measured at […] post dose; type: functional, organism-based
Mus musculus [30] = experiment: Anticonvulsant activity in 6-Hz induced seizure mouse model assessed as restoration of normal activity within 10 secs from stimulation at 100 mg/kg, ip at 32 mA measured at 0.5 hrs post dose; type: functional, organism-based
Rattus norvegicus [31] = experiment: Anticonvulsant activity in po dosed pentylenetetrazole induced seizure Sprague-Dawley rat model assessed as no observable episode of clonic convulsion of at least 5 secs; type: functional
Mus musculus [32] = experiment: Anticonvulsant activity in ip dosed pentylenetetrazole induced seizure mouse model; type: functional
Mus musculus [33] = experiment: Anticonvulsant activity in ip dosed 6-Hz induced seizure mouse model assessed as restoration of normal activity within 10 secs from stimulation at 32 mA; type: functional

SMILES | Activity (Mus musculus [1]) | Activity (Mus musculus [2]) | Activity (Rattus norvegicus [8]) | Activity (Rattus norvegicus [9]) | Activity (Rattus norvegicus [10]) | Activity (Mus musculus [11]) | Activity (Mus musculus [12]) | Activity (Rattus norvegicus [13]) | Activity (Rattus norvegicus [15]) | Activity (Mus musculus [18]) | Activity (Mus musculus [19]) | Activity (Mus musculus [20]) | Activity (Mus musculus [21]) | Activity (Mus musculus [22]) | other results
CC[C@@H](CO)NC(=O)/C=C/c1ccc(Cl)cc1 | Toxic | Active |  |  |  |  |  |  |  |  |  |  |  |  | Time (Mus musculus [3]): 0.25 h; Time (Mus musculus [4]): 0.25 h; TD50 [5]: 56.4 mg/kg; selectivity ratio [6]: 1.3; ED50 (Mus musculus [7]): 43.3 mg/kg
Cc1ccccc1/C=C/C(=O)N[C@H]1CC[C@H](O)CC1 |  |  | Non-Toxic | Non-Toxic | Non-Toxic | Non-Toxic | Non-Toxic | Non-Toxic | Non-Toxic | Non-Toxic |  |  |  |  | Activity (Mus musculus [14]): Active; Activity (Mus musculus [16]): Active; Activity (Mus musculus [17]): Active
CC(CO)NC(=O)/C=C/c1ccc(Cl)cc1 (centres undefined) |  | Active | Non-Toxic | Non-Toxic | Non-Toxic | Non-Toxic | Non-Toxic | Non-Toxic | Non-Toxic |  | Active | Non-Toxic | Toxic | Active | Activity (Mus musculus [17]): Active; Activity (Mus musculus [23]): Active
Cc1ccccc1/C=C/C(=O)NC1CCCCC1O (racemic) | Non-Toxic |  |  |  |  | Non-Toxic | Non-Toxic |  |  | Non-Toxic |  | Non-Toxic | Non-Toxic | Active | 
CCC(O)CNC(=O)/C=C/c1ccc(C)cc1 (centres undefined) | Non-Toxic |  |  |  |  |  |  |  |  |  |  | Non-Toxic |  |  | Activity (Rattus norvegicus [24]): Non-Toxic; Activity (Rattus norvegicus [25]): Non-Toxic; Activity (Rattus norvegicus [26]): Non-Toxic; Activity (Rattus norvegicus [27]): Non-Toxic; Activity (Rattus norvegicus [28]): Non-Toxic
CC[C@H](CO)NC(=O)/C=C/c1ccc(Cl)cc1 | Toxic | Active |  |  |  |  |  |  |  |  |  |  |  |  | Time (Mus musculus [3]): 0.25 h; Time (Mus musculus [4]): 0.25 h; TD50 [5]: 105 mg/kg; selectivity ratio [6]: 3.85; ED50 (Mus musculus [7]): 27.3 mg/kg
Cc1ccccc1/C=C/C(=O)N[C@H](C)CO | Non-Toxic |  | Non-Toxic | Non-Toxic | Non-Toxic | Non-Toxic | Non-Toxic | Non-Toxic | Non-Toxic | Non-Toxic | Active | Non-Toxic | Toxic | Active | Activity (Mus musculus [29]): Active; Activity (Mus musculus [30]): Active
NC(=O)N1c2ccccc2C=Cc2ccccc21 [CARBAMAZEPINE] |  |  |  |  |  |  |  |  |  |  |  |  |  |  | ED50 (Rattus norvegicus [31]): > 250 mg/kg; ED50 (Mus musculus [32]): > 50 mg/kg; ED50 (Mus musculus [33]): 47.9 mg/kg
CC[C@@H](CO)NC(=O)/C=C/c1ccc(C)cc1 | Non-Toxic |  |  |  |  | Non-Toxic | Non-Toxic |  |  | Non-Toxic | Active | Non-Toxic | Toxic | Active | 
